# Source: ChEMBL document CHEMBL1139133, “A spectroscopic and molecular modeling study of sinomenine binding to transferrin” (Bioorg Med Chem Lett, 2007)
# Species on record: Homo sapiens
# Experiment: Binding affinity to human serum transferrin
smiles,measurement,value
COC1=C[C@@H]2[C@@H]3Cc4ccc(OC)c(O)c4[C@]2(CCN3C)CC1=O,Ka,0.68 10^3/M
